Laboratory results as given in US5049559A, “Thieno-triazolo-diazepine derivatives useful as anti-ischemic agents” (priority 1989, dated 1991).

Experiments:
[1] = Global ischemia on gerbils; format: in vivo; details: Meriones unguiculatus, 168 h, carotides clamped 10 minutes, hippocampes one week later, 3H-PK 11195, percentage of protection compared to control
Procedure: 3) Global ischemia on gerbils For this test, males gerbils were anaesthetized with brietal at the doses of 35 mg/kg IP; thereafter, both carotides were clamped for 10 minutes, then the clamping was released. Treated animals received each 10 mg/kg of the compounds of one of the examples. One week later, the animals were killed and both hippocampes were taken, weighed and frozen at -80° C. After crushing with 1 ml of TRIS-HCl pH 7.4 for 30 seconds, aliquots of each 50 μl of this preparation were incubed in each 1 ml of TRIS-HCl buffer containing ^3 H-PK 11195 at 2 nM (90 Ci/mmole, NENE, Germany) for 1 hour at 25° C. For each preparation, 3 determinations were made. The density of omega 3 sites (marked by the specific ^3 H-PK 11195 marker) are expressed in f-moles of PK 11195/mg of fresh tissues and converted in percentage of protection compared to control.

[2] = system: platelet aggregation induced by PAF; assay: Inhibition of platelet aggregation induced by PAF; format: cell-based; details: Oryctolagus cuniculus, male New Zealand rabbits, Table I
Procedure: 1) Inhibition of platelet aggregation induced by PAF
This experimentation was conducted according to the method of R. KINLOUGH. RATHBONE, J. P. CAZENAVE, M. PACKHAM and F. MUSTARD, Lab. Invest. 48, 98, 1980. In this test, New Zealand rabbits were used (male New Zealand rabbits of an average weight of 5 kg).
The determinations are made on a chrono-log Coultronics aggregometer, at […] coupled with a graphic recorder; the results of these determinations (in molecular concentration) are reported on the table I on the central column.

benzodiazepine receptors = assay: Inhibition of the binding to benzodiazepine receptors; details: rat brains, 1 hour 30 minutes at 4° C., tracers 3H-RO-15-1788 and 3H-RO-5-4864, Table I, read-out: BDZ receptors
Description: 2) Inhibition of the binding to benzodiazepine receptors
The interest of the previous experimentation depends on the results obtained in this experimentation: as a compound of the invention has a benzodiazepine like structure, it is important to check whether the specific benzodiazepine activity would not appear at the dose where platelet aggregation was inhibited.
Therefore, this experimentation has been conducted according to the method of MOHLER H. and RICHARD J. G. Agonist and antagonist benzodiazepine receptor interaction in vitro, Nature, vol. 294, 763-765, 1981.
This experimentation was conducted on rat brains incubated 1 hour 30 minutes at 4° C. using ^3 H-RO-15-1788 and ^3 H-RO-5-4864 (NEN) as tracers and […] and RO-5-4864 as reference antagonists.
The results in molecular concentration are reported in the table I, on the right hand column.

SMILES	inhibition in vivo at 10 mg/kg [1]	IC50 [2]	IC50 (benzodiazepine receptors)
Cc1nnc2n1-c1sc3c(c1C(c1ccccc1Cl)=NC2)CCN(C(=S)CSc1cccc(Cl)c1Cl)C3 [Example 28, 6-(2-chlorophenyl)-9-(2,3-dichlorophenylthiomethyl-thiocarbonyl)-7,8,9, 10-tetrahydro-1-methyl-4H-pyrido [4',3':4,5] thieno [3,2-f] 1,2,4-triazolo[4,3-a] 1,4-diazepine]	35.3%	9.06 nM	4300 nM
Cc1nnc2n1-c1sc3c(c1C(c1ccccc1Cl)=NC2)CCN(C(=O)CSc1ccc(Oc2ccccc2)cc1)C3 [Example 29, 6-(2-chlorophenyl)-9-(4-phenoxyphenylthiomethyl-carbonyl) 7,8,9, 10-tetrahydro-1-methyl-4H-pyrido [4',3':4,5] thieno [3,2-f] 1,2,4-triazolo[4,3-a] 1,4-diazepine]	51.6%	9.05 nM	1230 nM
Cc1nnc2n1-c1sc3c(c1C(c1ccccc1Cl)=NC2)CCN(C(=S)CSc1ccc(Oc2ccccc2)cc1)C3 [Example 30, 6-(2-chlorophenyl)-9-(4-phenoxyphenylthiomethyl-thiocarbonyl)-7,8,9, 10-tetrahydro-1-methyl-4H-pyrido [4',3':4,5] thieno [3,2-f] 1,2,4-triazolo[4,3-a] 1,4-diazepine]	16.1%	104 nM	360 nM
Cc1nnc2n1-c1sc3c(c1C(c1ccccc1Cl)=NC2)CCN(C(=O)CSc1ccco1)C3 [Example 31, 6-(2-chlorophenyl)-9-(2-furyl-thiomethyl-carbonyl)-7,8,9, 10-tetrahydro-1-methyl-4H-pyrido [4',3':4,5] thieno [3,2-f] 1,2,4-triazolo[4,3-a] 1,4-diazepine]	36.2%	7.1 nM	230 nM
Cc1nnc2n1-c1sc3c(c1C(c1ccccc1Cl)=NC2)CCN(C(=S)CSc1ccco1)C3 [Example 32, 6-(2-chlorophenyl)-9-(2-furyl-thiomethyl-thiocarbonyl)-7,8,9, 10-tetrahydro-1-methyl-4H-pyrido [4',3':4,5] thieno [3,2-f] 1,2,4-triazolo[4,3-a] 1,4-diazepine]	30.3%	8.75 nM	1300 nM
Cc1nnc2n1-c1sc3c(c1C(c1ccccc1Cl)=NC2)CCN(C(=O)CSc1cccs1)C3 [Example 33, 6-(2-chlorophenyl)-9-(2-thienyl-thiomethyl-carbonyl)-7,8,9, 10-tetrahydro-1-methyl-4H-pyrido [4',3':4,5] thieno [3,2-f] 1,2,4-triazolo[4,3-a] 1,4-diazepine]	24.8%	41.2 nM	5700 nM
Cc1nnc2n1-c1sc3c(c1C(c1ccccc1Cl)=NC2)CCN(C(=S)CSc1cccs1)C3 [Example 34, 6-(2-chlorophenyl)-9-(2-thienyl-thiomethyl-thiocarbonyl)-7,8,9, 10-tetrahydro-1-methyl-4H-pyrido [4',3':4,5] thieno [3,2-f] 1,2,4-triazolo[4,3-a] 1,4-diazepine]	34.7%	128 nM	720 nM
